Experimental findings from ChEMBL document CHEMBL1201862, “PubChem BioAssay data set” (2004) are described below.

Among the test systems are A498; A549; DMS-114; HL-60; HOP-18; M19-MEL; NCI-H226; OVCAR-5; SF-295; SK-MEL-5; SN12C; SNB-19; SNB-78; SR; XF498; BT-549; DU-145; Hs-578T; MDA-MB-231; PC-3.
Experiment in all cases: growth of human tumour cells (NCI), 48 h

Each structure is given as a SMILES string.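 Where inhibition never reached the appropriate level, the endpoint shown equals the highest concentration tested. Otherwise, values were interpolated linearly from a five-concentration, 48-hour dose response in 96-well plates. Abbreviation: GI50, concentration required for 50% inhibition of growth.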 The source made the active and inactive calls. No stated cut-off is given here; in the data, active = GI50 up to about 1.1 µM and inactive = higher. A value given as a limit tells only on which side of the number the result lay.

Turning to `COc1ccc(C(=O)Cc2ccc(Cl)cc2)cc1OC`, the GI50 with A498, in the assay with A549, in the assay on DMS-114, with HL-60, in the assay on HOP-18 and in the assay on M19-MEL was > 100 µM (inactive) in each case. In addition, the GI50 in the assay on NCI-H226, in the assay on OVCAR-5, in the assay on SF-295, with SK-MEL-5, in the assay with SN12C and in the assay with SNB-19 was > 100 µM (inactive) each time. The GI50 in the assay on SNB-78, with SR and in the assay with XF498 was > 100 µM (inactive) each time.
In the case of `Cn1ccnc1C(O)(c1nccn1C)c1nccn1C`, the GI50 is > 100 µM (inactive) in the assay on DMS-114; > 100 µM (inactive) in the assay on HL-60; 14.1 µM (inactive) in the assay with HOP-18; > 100 µM (inactive) with M19-MEL; > 100 µM (inactive) with NCI-H226; > 100 µM (inactive) with OVCAR-5. The GI50 with SF-295, in the assay with SK-MEL-5, in the assay with SN12C, with SNB-19, with SNB-78 and in the assay with SR was > 100 µM (inactive) in each case. In the assay on XF498, the GI50 is > 100 µM (inactive).
In the case of `COc1cc(C2c3cc4c(cc3OC3(O)COC(=O)C23)OCO4)cc(OC)c1OC` (configuration not stated), the GI50 with A498 was 46.7 µM (inactive); in the assay on A549 it was 67.5 µM (inactive); in the assay on DMS-114 it was 34.7 µM (inactive); in the assay on HL-60 it was 30.3 µM (inactive); in the assay on HOP-18 it was > 100 µM (inactive); with M19-MEL it was 56.6 µM (inactive). Also, the GI50 in the assay with NCI-H226 was 32.6 µM (inactive); with OVCAR-5, > 100 µM (inactive); in the assay with SF-295, 26.9 µM (inactive); in the assay with SK-MEL-5, > 10 µM (inactive); with SN12C it was 67 µM (inactive); in the assay with SNB-19 it was 53.5 µM (inactive). Further, the GI50 with SNB-78 was > 100 µM (inactive); in the assay on SR, 16.7 µM (inactive); in the assay on XF498, 35.7 µM (inactive).
Regarding `Cc1c2cc[n+](Cc3ccc(I)cc3)cc2c(C)c2c1[nH]c1ccccc12`, the GI50 in the assay with A498 was 0.697 µM (active); with A549 it was 0.849 µM (active); in the assay on DMS-114, 0.605 µM (active); with HL-60 it was 0.488 µM (active); in the assay with HOP-18 it was 1 µM (active); in the assay with M19-MEL, 0.254 µM (active). Besides, the GI50 is 0.552 µM (active) with NCI-H226; 1.37 µM (inactive) with OVCAR-5; 0.296 µM (active) in the assay on SF-295; 0.49 µM (active) with SK-MEL-5; 0.548 µM (active) in the assay on SN12C; 0.471 µM (active) with SNB-19. The GI50 was 0.731 µM (active) in the assay with SNB-78 and 0.433 µM (active) in the assay with XF498.
`O=C1C(Cl)=C(c2ccc([N+](=O)[O-])cc2)C(=O)c2c(O)cccc21`: the GI50 in the assay with A498 was 3.08 µM (inactive); with A549, 3.28 µM (inactive); in the assay on BT-549, 1.03 µM (active); in the assay with DMS-114, 0.202 µM (active); in the assay on DU-145, 6.04 µM (inactive); in the assay with HL-60, 3.48 µM (inactive). Besides, the GI50 with HOP-18 was 0.573 µM (active); with Hs-578T, 1.19 µM (inactive); with M19-MEL, 1.57 µM (inactive); with MDA-MB-231 it was 1.03 µM (active); in the assay with NCI-H226, 1.73 µM (inactive); in the assay on OVCAR-5, 2.24 µM (inactive). In addition, the GI50 in the assay with PC-3 is 2.12 µM (inactive); in the assay with SF-295, 2.7 µM (inactive); in the assay with SK-MEL-5, 1.87 µM (inactive); in the assay on SN12C it was 2.96 µM (inactive); in the assay on SNB-19, 1.45 µM (inactive); in the assay on SNB-78, 1.83 µM (inactive). For the same molecule, the results for the GI50 in the assay with SR and in the assay on XF498 were 0.134 µM (active) and 0.395 µM (active), respectively.
